Read-outs that look alike come from different tables or passages of the source.
Columns and labels:
[1] = molecular target: T1, human recombinant serotonin (5-Hydroxytryptamine) 5-HT2C receptor (Homo sapiens, UniProt P28335); experiment: Serotonin 5-HT2C radioligand binding ([3H]Mesulergine); design: Inhibition of ligand binding, Ser. 5-HT2C: concentration or dose not given beside the values; details: for Inhibition of ligand binding, Ser. 5-HT2C: percent inhibition of specific binding; for inhibition at 1 µM: compounds screened at 1 μM, read-out: Inhibition of ligand binding, Ser. 5-HT2C (percent inhibition of specific binding)
T1 construct: expressed in transfected cells; host or cells: CHO-K1 cells
T1 sequence (P28335 33-458): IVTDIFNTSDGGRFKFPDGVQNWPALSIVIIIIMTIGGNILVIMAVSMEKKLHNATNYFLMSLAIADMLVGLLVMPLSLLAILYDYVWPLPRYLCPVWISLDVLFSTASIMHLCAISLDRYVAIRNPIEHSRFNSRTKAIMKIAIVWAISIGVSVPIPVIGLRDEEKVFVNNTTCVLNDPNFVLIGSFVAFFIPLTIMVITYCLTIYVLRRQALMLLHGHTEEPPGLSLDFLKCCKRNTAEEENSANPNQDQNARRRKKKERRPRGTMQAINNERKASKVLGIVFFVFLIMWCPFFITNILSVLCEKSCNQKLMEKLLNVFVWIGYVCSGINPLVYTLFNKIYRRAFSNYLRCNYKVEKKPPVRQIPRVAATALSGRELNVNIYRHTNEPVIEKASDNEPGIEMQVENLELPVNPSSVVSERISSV
Method: (§1) Compounds of the invention were incubated with 1 nM [^3H]Mesulergine for 60 minutes at 25° C. Non-specific binding was estimated in the presence of 1 μM Mianserin. Receptor proteins were filtered and washed, the filters were then counted to determine [^3H]Mesulergine specifically bound. […] Biochemical assay results are presented as the percent inhibition of specific binding in Table 6.

[2] = molecular target: T2, human recombinant serotonin (5-Hydroxytryptamine) 5-HT2A receptor (Homo sapiens, UniProt P28223); experiment: Serotonin 5-HT2A radioligand binding ([3H]Ketanserin); details: for Inhibition of ligand binding, Ser. 5-HT2A: percent inhibition of specific binding; for inhibition at 1 µM: read-out: Inhibition of ligand binding, Ser. 5-HT2A (percent inhibition of specific binding)
T2 construct: expressed in transfected cells; host or cells: CHO-K1 cells
Method: as §1, with “with 0.5” for “with 1”, “nM [^3H]Ketanserin” for “nM [^3H]Mesulergine”, “determine [^3H]Ketanserin” for “determine [^3H]Mesulergine”

[3] = molecular target: T3, human recombinant histamine H2 receptor (Homo sapiens, UniProt P25021); experiment: Histamine H2 radioligand binding ([125I]Aminopotentidine)
T3 construct: expressed in transfected cells; host or cells: CHO-K1 cells
Procedure, shortened: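 Test compounds were assessed for their ability to displace radioligand from the human recombinant histamine H2 receptor. Non-specific binding was determined in the presence of 3 μM Tiotidine, and results were expressed as percent inhibition of specific binding, with 1% DMSO serving as the vehicle.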

[4] = molecular target: T4, human recombinant adrenergic α1D receptor (Homo sapiens, UniProt P25100); experiment: Adrenergic α1D radioligand binding ([3H]Prozosin); design: Inhibition of ligand binding, Adren. alpha1D: concentration or dose not given beside the values; details: for Inhibition of ligand binding, Adren. alpha1D: percent inhibition of specific binding; for inhibition at 1 µM: compounds screened at 1 μM, read-out: Inhibition of ligand binding, Adren. alpha1D (percent inhibition of specific binding)
T4 construct: expressed in transfected cells; host or cells: HEK-293 cells
T4 sequence (P25100 1-572): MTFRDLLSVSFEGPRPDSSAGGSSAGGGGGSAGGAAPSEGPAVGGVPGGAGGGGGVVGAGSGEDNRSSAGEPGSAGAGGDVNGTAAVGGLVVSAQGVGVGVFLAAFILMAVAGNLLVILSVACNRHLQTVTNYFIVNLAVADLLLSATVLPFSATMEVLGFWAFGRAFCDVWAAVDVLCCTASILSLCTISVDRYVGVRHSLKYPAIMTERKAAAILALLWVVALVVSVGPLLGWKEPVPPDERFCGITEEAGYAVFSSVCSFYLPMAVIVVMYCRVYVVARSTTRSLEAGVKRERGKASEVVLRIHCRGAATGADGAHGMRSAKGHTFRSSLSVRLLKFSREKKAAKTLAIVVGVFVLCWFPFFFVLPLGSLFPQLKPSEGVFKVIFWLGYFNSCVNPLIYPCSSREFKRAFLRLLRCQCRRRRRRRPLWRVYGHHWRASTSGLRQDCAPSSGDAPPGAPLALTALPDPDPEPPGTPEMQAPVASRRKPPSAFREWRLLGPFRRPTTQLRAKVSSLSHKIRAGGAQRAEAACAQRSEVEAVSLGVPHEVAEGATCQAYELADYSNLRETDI
Method: as §1, with “of” for “of the”, “with 0.6” for “with 1”, “nM [^3H]Prozosin” for “nM [^3H]Mesulergine”, “of 10” for “of 1”, “μM phentolamine.” for “μM Mianserin.”, “determine [^3H]Prozosin” for “determine [^3H]Mesulergine”

[5] = percent inhibition of specific binding, screened at 1 μM, read-out: Inhibition of ligand binding, Hist. H2
[6] = compounds screened at 1 μM, read-out: Inhibition of ligand binding, Hist. H2 (percent inhibition of specific binding)

T3 sequence (P25021 whole entry): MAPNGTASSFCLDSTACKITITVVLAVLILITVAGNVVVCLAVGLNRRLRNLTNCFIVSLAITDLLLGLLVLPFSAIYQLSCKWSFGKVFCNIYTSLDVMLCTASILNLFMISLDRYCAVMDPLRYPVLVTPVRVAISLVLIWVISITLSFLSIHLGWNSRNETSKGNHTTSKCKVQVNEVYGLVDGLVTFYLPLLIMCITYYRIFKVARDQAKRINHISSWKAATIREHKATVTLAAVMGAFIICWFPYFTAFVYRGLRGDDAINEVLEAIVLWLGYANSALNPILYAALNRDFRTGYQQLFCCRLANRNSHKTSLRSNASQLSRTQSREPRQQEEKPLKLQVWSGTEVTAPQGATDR
T2 sequence (P28223 whole entry): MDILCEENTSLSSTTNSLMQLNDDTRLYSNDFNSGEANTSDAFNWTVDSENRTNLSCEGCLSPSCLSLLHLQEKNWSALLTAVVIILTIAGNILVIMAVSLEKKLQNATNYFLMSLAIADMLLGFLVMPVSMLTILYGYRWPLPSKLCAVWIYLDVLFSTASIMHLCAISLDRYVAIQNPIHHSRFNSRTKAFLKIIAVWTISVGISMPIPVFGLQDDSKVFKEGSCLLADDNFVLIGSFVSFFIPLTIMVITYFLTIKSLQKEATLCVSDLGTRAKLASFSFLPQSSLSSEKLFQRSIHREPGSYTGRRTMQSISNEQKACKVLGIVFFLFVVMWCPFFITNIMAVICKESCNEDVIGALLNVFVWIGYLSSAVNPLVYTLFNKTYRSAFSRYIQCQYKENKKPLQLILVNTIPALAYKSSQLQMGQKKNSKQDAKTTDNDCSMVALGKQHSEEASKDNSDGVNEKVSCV

CN1CCc2c(c3cc(Cl)ccc3n2CC(=O)N2CC[S+]([O-])CC2)C1 [Compound 296, 2-(8-Chloro-2-methyl-1,2,3,4-tetrahydro-pyrido[4,3-b]indol-5-yl)-1-(1-oxo-1l4-thiomorpholin-4-yl)-ethanone]
Inhibition of ligand binding, Ser. 5-HT2C [1]: 2%
Inhibition of ligand binding, Ser. 5-HT2A [2]: 11%
inhibition at 1 µM [3, 5]: -4%
Inhibition of ligand binding, Adren. alpha1D [4]: 3%

Cc1ccc2c(c1)c1c(n2CCc2cnc(C)cn2)CCN(C)C1 [Compound 322, 2,8-dimethyl-5-(2-(5-methylpyrazin-2-yl)ethyl)-2,3,4,5-tetrahydro-1H-pyrido[4,3-b]indole]
Inhibition of ligand binding, Ser. 5-HT2C [1]: 69%
Inhibition of ligand binding, Ser. 5-HT2A [2]: 64%
inhibition at 1 µM [3, 5]: 20%
Inhibition of ligand binding, Adren. alpha1D [4]: 66%

Cc1ccc2c(c1)c1c(n2CCc2cnc(C)nc2)CCN(C)C1 [Compound 323, 2,3,4,5-tetrahydro-2,8-dimethyl-5-(2-(2-methylpyrimidin-5-yl)ethyl)-1H-pyrido[4,3-b]indole]
Inhibition of ligand binding, Ser. 5-HT2C [1]: 20%
Inhibition of ligand binding, Ser. 5-HT2A [2]: 16%
inhibition at 1 µM [3, 5]: 17%
Inhibition of ligand binding, Adren. alpha1D [4]: 49%

CN1CCc2c(c3cc(Cl)ccc3n2CCCc2ccc(C(F)(F)F)nc2)C1 [Compound 324, 8-chloro-5-(3-(6-(trifluoromethyl)pyridin-3-yl)propyl)-2,3,4,5-tetrahydro-2-methyl-1H-pyrido[4,3-b]indole]
Inhibition of ligand binding, Ser. 5-HT2C [1]: 57%
Inhibition of ligand binding, Ser. 5-HT2A [2]: 86%
inhibition at 1 µM [3, 5]: 63%
Inhibition of ligand binding, Adren. alpha1D [4]: 53%

CC1CCN(C(=O)CCn2c3c(c4cc(Cl)ccc42)CN(C)CC3)CC1 [Compound 325, 3-(8-chloro-1,2,3,4-tetrahydro-2-methylpyrido[4,3-b]indol-5-yl)-1-(4-methylpiperidin-1-yl)propan-1-one]
Inhibition of ligand binding, Ser. 5-HT2C [1]: 50%
Inhibition of ligand binding, Ser. 5-HT2A [2]: 53%
inhibition at 1 µM [3, 5]: 22%
Inhibition of ligand binding, Adren. alpha1D [4]: 36%

CN1CCc2c(c3cc(Cl)ccc3n2CCC(=O)N2CCCCC2)C1 [Compound 326, 3-(8-chloro-1,2,3,4-tetrahydro-2-methylpyrido[4,3-b]indol-5-yl)-1-(piperidin-1-yl)propan-1-one]
Inhibition of ligand binding, Ser. 5-HT2C [1]: 31%
Inhibition of ligand binding, Ser. 5-HT2A [2]: 27%
inhibition at 1 µM [3, 5]: 12%
Inhibition of ligand binding, Adren. alpha1D [4]: 40%

CN1CCc2c(c3cc(Cl)ccc3n2CCC(=O)N2CCOCC2)C1 [Compound 328, 3-(8-chloro-1,2,3,4-tetrahydro-2-methylpyrido[4,3-b]indol-5-yl)-1-morpholinopropan-1-one]
Inhibition of ligand binding, Ser. 5-HT2C [1]: 29%
Inhibition of ligand binding, Ser. 5-HT2A [2]: 46%
inhibition at 1 µM [3, 5]: 4%
Inhibition of ligand binding, Adren. alpha1D [4]: 23%

Cc1ccc2c(c1)c1c(n2CC(=O)N2CCOCC2)CCN(C)C1 [Compound 330, 2-(1,2,3,4-tetrahydro-2,8-dimethylpyrido[4,3-b]indol-5-yl)-1-morpholinoethanone]
Inhibition of ligand binding, Ser. 5-HT2C [1]: 17%
Inhibition of ligand binding, Ser. 5-HT2A [2]: 14%
inhibition at 1 µM [3, 5]: 6%
Inhibition of ligand binding, Adren. alpha1D [4]: 8%

Cc1ccc2c(c1)c1c(n2CCCc2ccc(C(F)(F)F)nc2)CCN(C)C1 [Compound 331, 5-(3-(6-(trifluoromethyl)pyridin-3-yl)propyl)-2,3,4,5-tetrahydro-2,8-dimethyl-1H-pyrido[4,3-b]indole]
Inhibition of ligand binding, Ser. 5-HT2C [1]: 72%
Inhibition of ligand binding, Ser. 5-HT2A [2]: 93%
inhibition at 1 µM [3, 5]: 73%
Inhibition of ligand binding, Adren. alpha1D [4]: 63%

CCOc1ccc(CCn2c3c(c4cc(C)ccc42)CN(C)CC3)cc1 [Compound 334, 5-[2-(4-Ethoxy-phenyl)-ethyl]-2,8-dimethyl-2,3,4,5-tetrahydro-1H-pyrido[4,3-b]indole]
Inhibition of ligand binding, Ser. 5-HT2C [1]: 97%
Inhibition of ligand binding, Ser. 5-HT2A [2]: 101%
inhibition at 1 µM [3, 5]: 91%
Inhibition of ligand binding, Adren. alpha1D [4]: 110%

Cc1ccc2c(c1)c1c(n2CCc2ccc(OC(C)(C)C)cc2)CCN(C)C1 [Compound 335, 5-(4-tert-butoxyphenethyl)-2,3,4,5-tetrahydro-2,8-dimethyl-1H-pyrido[4,3-b]indole]
Inhibition of ligand binding, Ser. 5-HT2C [1]: 72%
Inhibition of ligand binding, Ser. 5-HT2A [2]: 97%
inhibition at 1 µM [3, 5]: 77%
Inhibition of ligand binding, Adren. alpha1D [4]: 91%

COc1ccc(CCn2c3c(c4cc(Cl)ccc42)CN(C)CC3)cc1 [Compound 336, 8-Chloro-5-[2-(4-methoxy-phenyl)-ethyl]-2-methyl-2,3,4,5-tetrahydro-1H pyrido[4,3-b]indole]
Inhibition of ligand binding, Ser. 5-HT2C [1]: 99%
Inhibition of ligand binding, Ser. 5-HT2A [2]: 96%
inhibition at 1 µM [3, 5]: 101%
Inhibition of ligand binding, Adren. alpha1D [4]: 98%

COc1ccc(CCn2c3c(c4cc(Cl)ccc42)CN(C)CC3)cc1F [Compound 337, 5-(3-fluoro-4-methoxyphenethyl)-8-chloro-2,3,4,5-tetrahydro-2-methyl-1H-pyrido[4,3-b]indole]
Inhibition of ligand binding, Ser. 5-HT2C [1]: 94%
Inhibition of ligand binding, Ser. 5-HT2A [2]: 101%
inhibition at 1 µM [3, 5]: 92%
Inhibition of ligand binding, Adren. alpha1D [4]: 97%

CN1CCc2c(c3ccncc3n2CCc2ccccn2)C1 [Compound 481, 7-aza-2-methyl-5-(2-(pyridin-2-yl)ethyl)-2,3,4,5-tetrahydro-1H-pyrido[4,3-b]indole]
inhibition at 1 µM [1]: 20%
inhibition at 1 µM [2]: 27%
inhibition at 1 µM [3, 6]: -17%
inhibition at 1 µM [4]: 3%

CN1CCc2c(c3ncccc3n2CCc2ccncc2)C1 [Compound 482, 9-aza-2-methyl-5-(2-(pyridin-4-yl)ethyl)-2,3,4,5-tetrahydro-1H-pyrido[4,3-b]indole]
inhibition at 1 µM [1]: 17%
inhibition at 1 µM [2]: -7%
inhibition at 1 µM [3, 6]: -9%
inhibition at 1 µM [4]: 2%

CN1CCc2c(c3ccncc3n2CCc2ccncc2)C1 [Compound 483, 7-aza-2-methyl-5-(2-(pyridin-4-yl)ethyl)-2,3,4,5-tetrahydro-1H-pyrido[4,3-b]indole]
inhibition at 1 µM [1]: 9%
inhibition at 1 µM [2]: 2%
inhibition at 1 µM [3, 6]: -7%
inhibition at 1 µM [4]: 3%

CN1CCc2c(c3ncccc3n2CCc2ccccn2)C1 [Compound 484, 9-aza-2-methyl-5-(2-(pyridin-2-yl)ethyl)-2,3,4,5-tetrahydro-1H-pyrido[4,3-b]indole]
inhibition at 1 µM [1]: 31%
inhibition at 1 µM [2]: 39%
inhibition at 1 µM [3, 6]: -4%
inhibition at 1 µM [4]: 10%

Cc1ccc(CCn2c3c(c4cc(I)ccc42)CN(C)CC3)cn1 [Compound 485, 2,3,4,5-tetrahydro-8-iodo-2-methyl-5-(2-(6-methylpyridin-3-yl)ethyl)-1H-pyrido[4,3-b]indole]
inhibition at 1 µM [1]: 91%
inhibition at 1 µM [2]: 69%
inhibition at 1 µM [3, 6]: 71%
inhibition at 1 µM [4]: 69%
